Converted amounts (≈) assume the structure as drawn. Some results are limits rather than exact numbers.

The record followed here is patent publication US20110136229A1, “Novel lectin” (National Taiwan University, priority 2009, published 2011).

For one experiment, the system named is lectin of Carica papaya. The experiment is described as follows: Analysis of sugar-binding specificity (inhibition of lectin-induced hemagglutination by sugars, IC50). It counts as cell-based. Conditions: lowest sugar concentration inhibiting 50% agglutinating activity; peak 1 diluted to HA titer 32. The protocol:
The N-acetylgalactosamine, galactose, lactose, mannose, N-acetylglucosamine solutions were respectively added to the same volume of the samples, and the final sugar concentrations of the solutions were 3.1, 6.3, 12.5, 25, 50 and 100 mM, respectively. Upon well mixing, 50 μL of the mixture of the sample and the sugar solution was added to 50 μL of the human type O erythrocyte suspension (2×10^8 cells/mL) in the 96-well plate. Then, the 96-well plate was placed at 37 °C for 30 minutes, and the inhibition of the hemagglutination was observed. IC50 was defined as the lowest sugar concentration capable of inhibiting 50% agglutinating activity, wherein the inhibition area of the agglutination was at least half area of the bottom of the well.
In this embodiment, the fraction of the peak 1 (HA titer being 512) was diluted for 16 folds (HA titer being 32) for the analysis.

In a further experiment the test system is CPL. The experiment is described as follows: Hemagglutination inhibition assay on CPL by various sugars (MIC). In kind it is cell-based, Carica papaya. Conditions: minimum inhibitory concentration for inhibition of 16 hemagglutination titers, 2% human erythrocytes. The method, then: The HA titer of the purified lectin in the present invention was 512. The purified lectin was diluted to have the HA titer as 16, and then mixed with various sugar solution to test hemagglutination inhibition on CPL by various sugars. The results were illustrated in Table 3, wherein MIC indicated minimum inhibitory concentrations required for inhibition of 16 hemagglutination titers of the lectin of the present invention against 2% human 0-type erythrocytes, and all sugars are of D configuration.

Experiment [1] has as its system Jurkat T lymphocytes. It counts as cell-based, human. As to conditions: 1 μg/mL, 24 hours. The method, then: […] After incubation for 24 hours, cell viability was measured by cell proliferation reagent, WST-1 (4-[3-(4-iodophenyl)-2-(4-nitrophenyl)-2H-5-tetrazolio]-1,3-benzene disulfonate), and the cytokine content in the incubation medium was analyzed. […] 24 μg/mL of CPL had inhibition effect on Jurkat T lymphocytes similar to that of 10 μg/mL of SBA, i.e., inhibiting 30% of viability after 24-hour incubation.

In experiment [2] the test system is Jurkat T lymphocytes. Kind of experiment: IL-2 cytokine production in Jurkat T lymphocytes. It counts as cell-based, human. As to conditions: 10 μg/mL, 24 hr. The method, then:
The purified CPL was added to respective 1.8 mL of Jurkat T lymphocytes (2×10^6), wherein the final concentrations of CPL were 24, 12, 6 and 3 μg/mL, respectively. After incubation for 24 hours, cell viability was measured by cell proliferation reagent, WST-1 (4-[3-(4-iodophenyl)-2-(4-nitrophenyl)-2H-5-tetrazolio]-1,3-benzene disulfonate), and the cytokine content in the incubation medium was analyzed. […] 24 μg/mL of CPL had inhibition effect on Jurkat T lymphocytes similar to that of 10 μg/mL of SBA, i.e., inhibiting 30% of viability after 24-hour incubation.
In the control group of Jurkat T lymphocyte without lectin added therein, the concentration of IL-2 upon 24 hr incubation was approximately or lower than 10 pg/mL. However, upon incubation with lectin, Jurkat T lymphocytes were induced to secrete IL-2 into the culture medium. The concentrations of IL-2 secreted from Jurkat T lymphocytes incubated with SBA and PHA (10 μg/mL) were 377±1 and 308±7 pg/mL, respectively. After Jurkat T lymphocytes were incubated with various concentrations of CPL for 24 hours, the concentration of IL-2 in the medium was proportional to the concentration of CPL. In the medium added with 3 μg/mL of CPL, the concentration of IL-2 was 9.7 pg/mL, which had no significant difference from the control group. In the medium added with 6 μg/mL of CPL, the concentration of IL-2 was 44.5 pg/mL. […]

The subject of experiment [3] is CPL (Carica papaya lectin), purified lectin from papaya seeds. The experiment is described as follows: Interaction between CPL and immobilized GalNAc residues by surface plasmon resonance. It counts as binding. Conditions: GalNAc-PAA-biotin polymers immobilized on SA chip, CPL 1.8-30 nM as analyte, Biacore T100. The protocol:
(3) Interaction Between CPL and Immobilized GalNAc Residues by Surface Plasmon Resonance
GalNAc-PAA-biotin polymers were immobilized to a sensor chip modified with streptavidin (SA). The regeneration solution for the chip was 50 mM phosphate saline buffer (pH 7.0) containing 200 mM GalNAc. The concentrations of the purified CPL were adjusted to 30, 15, 7.5, 3.7 and 1.8 nM to be analytes, then subjected to the sensor chip immobilized with GalNAc-PAA-biotin polymers, and analyzed by Biacore T100 surface plasmon resonance analyzing machine. The obtained sensorgrams were analyzed and calculated by BIACORE T100 Evaluation software 2.0. After CPL was combined with GalNAc ligand on the sensor chip, the dissociation curve declined gradually. In other words, CPL had great affinity to GalNAc. […] (4) Immunomodulatory Effect of CPL on the Cytotoxicity and Induction of Cytokine Production in Jurkat T Lymphocytes

In turn, `OC[C@H]1O[C@@H](O[C@H]2[C@H](O)[C@@H](O)C(O)O[C@@H]2CO)[C@H](O)[C@@H](O)[C@H]1O` (stereo partly shown) [Lactose] showed an IC50 in the experiment with lectin of Carica papaya of 6.3 mM. In addition, in the experiment with CPL, the MIC is on record as 6.3 mM (≈ 2.16 mg/mL).

With `CC(=O)N[C@H]1C(O)O[C@H](CO)[C@@H](O)[C@@H]1O` (stereo partly shown) [N-acetylglucosamine], in the experiment with lectin of Carica papaya, the IC50 was > 100 mM. Moreover, the MIC in the experiment on CPL (listed as GlcNAc) is >100 mM.

With “SBA: soybean agglutinin, which specifically binds to GalNAc”, the effect on viability entry in the experiment on Jurkat T lymphocytes [1] was “no significant effect”. Moreover, in the experiment on Jurkat T lymphocytes [2], the “concentration of IL-2 in medium” value was 377 ± 1 pg/mL.

On to `O=C[C@H](O)[C@@H](O)[C@@H](O)[C@H](O)CO` [Galactose], for which the half-maximal inhibitory concentration (IC50) with lectin of Carica papaya was > 100 mM. For the same molecule, the MIC with CPL is listed as >100 mM.

In turn, `CC(=O)N[C@H]1C(O)O[C@H](CO)[C@H](O)[C@@H]1O` (stereo partly shown) [N-acetylgalactosamine] came in with a half-inhibitory concentration (IC50) in the experiment with lectin of Carica papaya of 6.3 mM. The molecule also displayed an MIC against CPL of 6.3 mM (≈ 1.39 mg/mL). In experiment [3], the “combination rate (Kon)” value is given as 5.5×10^4 1/MS and the “dissociation rate (Koff)” value is listed as 3×10^−4 1/S. For the same molecule, the Kd in experiment [3] (read-out: dissociation constant (Kd)) was ~5.5 nM.

By IC50 is commonly meant the midpoint of a concentration-inhibition curve. The MIC is the lowest concentration found to suppress growth. Higher therefore signals a less susceptible organism. For orientation: Kd means the concentration at which binding is half-saturated.
